IC50 and inhibition data for nine compounds are collected here from patent US8765748B2, “Indazolyl, benzimidazolyl, benzotriazolyl substituted indolinone derivatives as kinase inhibitors useful in the treatment of cancer” (University Health Network, priority 2007, dated 2014).

pIC50: −log10 of the molar value.

Assay type in all cases: biochemical
For one assay, the target named is T1, Aurora B (Homo sapiens, UniProt Q96GD4).
T1 construct: purchased Invitrogen PV3970
Description: Aurora B Inhibition Assay (Z-Lyte). As to conditions: for pIC50: 128 μM ATP, 28 nM Aurora B, read-out: Aurora B IC50 Ranges. The procedure: Aurora B inhibition was determined using the Z-Lyte assay kit from Invitrogen. The assay was performed using the recommended manufacturer's instructions with 128 μM ATP and 28 nM Aurora B (Invitrogen cat #PV3970). The % inhibition values were determined according to the manufacturer's directions and IC50 values were obtained using a non-linear 4 point logistic curve fit (XLfit4, IDBS)

For another assay, the target named is T2, human PLK4 (Homo sapiens, UniProt O00444).
T2 construct: amino terminal GST fusion of residues 1-391 of human PLK4; made in house; host or cells: E. coli
T2 sequence (O00444 1-391): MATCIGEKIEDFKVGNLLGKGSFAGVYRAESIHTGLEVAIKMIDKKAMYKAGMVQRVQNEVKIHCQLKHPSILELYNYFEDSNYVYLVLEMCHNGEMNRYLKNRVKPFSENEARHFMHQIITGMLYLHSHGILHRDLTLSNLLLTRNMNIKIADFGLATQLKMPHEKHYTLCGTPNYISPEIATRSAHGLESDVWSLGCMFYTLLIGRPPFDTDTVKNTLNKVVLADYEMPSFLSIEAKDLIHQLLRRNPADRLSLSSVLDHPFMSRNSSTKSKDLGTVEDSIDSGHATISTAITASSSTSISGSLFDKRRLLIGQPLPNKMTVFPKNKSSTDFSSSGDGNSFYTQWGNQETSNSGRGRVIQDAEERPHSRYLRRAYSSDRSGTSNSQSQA
Description: PLK4 Inhibition Assay (indirect ELISA). As to conditions: 15 μM ATP, 4 nM GST-PLK4; read-out: PLK4 IC50 Ranges. Put shortly: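 Dephosphorylated (lambda phosphatase) GST-PLK4 activity read by indirect ELISA. Compounds were pre-incubated with enzyme for 15 minutes before ATP was added. IC50 came from a non-linear 4-point logistic fit.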
On the technique in general: In an ELISA, binding on a coated surface is turned into a signal by an enzyme label.

A further assay deals with T3, PLK2 (Homo sapiens, UniProt Q9NYY3).
T3 construct: purchased Invitrogen PV4204
Description: PLK2 Inhibition Assay (Z-Lyte). As to conditions: for inhibition at 10 µM: 10 μM compound, read-out: PLK2 relative inhibition percentage at a dose of 10 μM. The procedure: PLK2 inhibition was determined using the Z-Lyte assay kit from Invitrogen (cat #PV3802). The assay was performed using the recommended manufacturer's instructions with 60 μM ATP and 133 nM PLK2 (Invitrogen cat #PV4204). The % inhibition values were determined according to the manufacturer's directions and IC50 values were obtained using a non-linear 4 point logistic curve fit (XLfit4, IDBS)

The target of a further assay is T4, PLK1 (Homo sapiens, UniProt P53350).
T4 construct: purchased Invitrogen PV3501
Description: PLK1 Inhibition Assay (Z-Lyte). As to conditions: for inhibition at 10 µM: 10 μM compound, read-out: PLK1 relative inhibition percentage at a dose of 10 μM; for pIC50: 25 μM ATP, 8 nM PLK1, read-out: PLK1 IC50 Ranges. As for the experimental part: PLK1 inhibition was determined using the Z-Lyte assay kit from Invitrogen (cat #PV3802). […] The % inhibition values were determined according to the manufacturer's directions and IC50 values were obtained using a non-linear 4 point logistic curve fit (XLfit4, IDBS)

A further assay deals with T5, Aurora A (Homo sapiens, UniProt O14965).
T5 construct: purchased Invitrogen PV3612
T5 sequence (O14965 1-403): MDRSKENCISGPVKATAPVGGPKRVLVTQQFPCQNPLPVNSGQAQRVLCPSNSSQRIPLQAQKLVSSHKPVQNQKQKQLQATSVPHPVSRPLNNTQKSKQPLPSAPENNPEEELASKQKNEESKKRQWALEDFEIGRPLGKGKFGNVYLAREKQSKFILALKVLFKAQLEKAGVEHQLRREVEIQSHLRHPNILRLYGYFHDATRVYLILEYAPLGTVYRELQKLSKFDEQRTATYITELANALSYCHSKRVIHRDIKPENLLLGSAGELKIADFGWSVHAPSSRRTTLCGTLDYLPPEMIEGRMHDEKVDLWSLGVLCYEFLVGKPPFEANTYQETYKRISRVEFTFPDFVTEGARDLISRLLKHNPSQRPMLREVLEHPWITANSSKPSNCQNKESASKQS
Description: Aurora A Inhibition Assay (Z-Lyte). As to conditions: for pIC50: 20 μM ATP, 12 nM Aurora A, read-out: Aurora A IC50 Ranges; for inhibition at 10 µM: 10 μM compound, read-out: Aurora A relative inhibition percentage at a dose of 10 μM. The procedure: Aurora A inhibition was determined using the Z-Lyte assay kit from Invitrogen. The assay was performed using the recommended manufacturer's instructions with 20 μM ATP and 12 nM Aurora A (Invitrogen cat #PV3612). The % inhibition values were determined according to the manufacturer's directions and IC50 values were obtained using a non-linear 4 point logistic curve fit (XLfit4, IDBS)

T4 sequence (P53350 whole entry): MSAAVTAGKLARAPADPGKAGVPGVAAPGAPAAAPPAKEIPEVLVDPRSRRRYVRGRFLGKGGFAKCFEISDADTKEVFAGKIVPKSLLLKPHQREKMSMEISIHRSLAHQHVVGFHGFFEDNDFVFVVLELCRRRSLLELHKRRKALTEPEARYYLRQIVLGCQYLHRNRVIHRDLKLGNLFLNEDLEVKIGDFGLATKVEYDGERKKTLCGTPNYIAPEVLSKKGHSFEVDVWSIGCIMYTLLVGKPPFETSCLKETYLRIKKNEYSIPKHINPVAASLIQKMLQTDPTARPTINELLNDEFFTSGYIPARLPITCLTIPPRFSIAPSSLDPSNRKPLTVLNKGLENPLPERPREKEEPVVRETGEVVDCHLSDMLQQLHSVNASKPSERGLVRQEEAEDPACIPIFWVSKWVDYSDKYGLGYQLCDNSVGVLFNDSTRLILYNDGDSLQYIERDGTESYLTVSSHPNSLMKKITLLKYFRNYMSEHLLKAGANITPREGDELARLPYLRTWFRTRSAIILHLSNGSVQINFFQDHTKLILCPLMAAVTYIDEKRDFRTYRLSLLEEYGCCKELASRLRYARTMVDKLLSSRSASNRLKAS
T1 sequence (Q96GD4 whole entry): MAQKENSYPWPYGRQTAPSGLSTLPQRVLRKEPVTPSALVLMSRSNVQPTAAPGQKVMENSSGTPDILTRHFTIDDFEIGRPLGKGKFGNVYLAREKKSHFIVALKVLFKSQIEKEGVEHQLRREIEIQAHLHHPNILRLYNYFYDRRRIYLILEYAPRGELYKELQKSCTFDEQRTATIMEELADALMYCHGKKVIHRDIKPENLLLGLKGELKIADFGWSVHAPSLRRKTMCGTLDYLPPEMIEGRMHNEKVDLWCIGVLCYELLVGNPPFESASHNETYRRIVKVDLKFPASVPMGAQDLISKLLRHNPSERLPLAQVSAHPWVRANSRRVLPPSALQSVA
T3 sequence (Q9NYY3 whole entry): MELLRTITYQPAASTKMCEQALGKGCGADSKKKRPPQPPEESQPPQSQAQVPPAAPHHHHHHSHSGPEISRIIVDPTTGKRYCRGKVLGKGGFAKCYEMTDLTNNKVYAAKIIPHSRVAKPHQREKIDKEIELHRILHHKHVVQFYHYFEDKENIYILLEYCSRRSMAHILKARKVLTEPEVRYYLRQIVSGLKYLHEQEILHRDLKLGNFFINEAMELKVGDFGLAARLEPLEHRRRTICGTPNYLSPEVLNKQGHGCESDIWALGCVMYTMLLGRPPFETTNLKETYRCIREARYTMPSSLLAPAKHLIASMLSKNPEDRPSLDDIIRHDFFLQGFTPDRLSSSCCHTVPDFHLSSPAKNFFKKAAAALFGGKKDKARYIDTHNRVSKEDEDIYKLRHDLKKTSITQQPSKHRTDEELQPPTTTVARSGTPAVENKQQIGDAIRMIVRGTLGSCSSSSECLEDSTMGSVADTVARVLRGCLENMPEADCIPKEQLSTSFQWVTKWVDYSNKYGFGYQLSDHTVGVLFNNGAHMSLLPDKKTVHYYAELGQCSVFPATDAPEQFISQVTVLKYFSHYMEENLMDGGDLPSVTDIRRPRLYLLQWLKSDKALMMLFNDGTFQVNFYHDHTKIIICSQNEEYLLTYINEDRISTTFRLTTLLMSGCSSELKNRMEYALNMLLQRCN

`COc1ccc2c(c1)C(=Cc1ccc3c(/C=C/C(=O)N4CCN(C)CC4)n[nH]c3c1)C(=O)N2` (mixture of isomers) [Example A118, (E and Z)-5-methoxy-3-((3-((E)-3-(4-methylpiperazin-1-yl)-3-oxoprop-1-enyl)-1H-indazol-6-yl)methylene)indolin-2-one]: the pIC50 at Aurora B, at human PLK4 and on Aurora A was greater than 5.30 throughout. For the same compound, the inhibition at 10 µM at PLK2 and at PLK1 was less than 50% each time.

As for `O=C1Nc2ncccc2/C1=C\c1ccc2c(/C=C/c3ccccn3)n[nH]c2c1` [Example A72, (E)-3-((3-((E)-2-(pyridin-2-yl)vinyl)-1H-indazol-6-yl)methylene)-1H-pyrrolo[2,3-b]pyridin-2(3H)-one], the pIC50 at Aurora B and on human PLK4 was greater than 5.30 each time. Moreover, the inhibition at 10 µM at PLK2 was less than 50%; on PLK1, less than 50%; on Aurora A it was greater than 50%.

With `Nc1ccc2c(c1)NC(=O)/C2=C/c1ccc2cn[nH]c2c1` [Example A38, (E)-3-((1H-indazol-6-yl)methylene)-2-oxoindolin-6-aminium 2,2,2-trifluoroacetate], the pIC50 at Aurora B is greater than 5.30; on human PLK4 it was greater than 5.30; on PLK1, 4.30 to 5.30; on Aurora A, 4.30 to 5.30. The inhibition at 10 µM at PLK2 was less than 50%.

`COc1ccc2c(c1)C(=Cc1ccc3cn[nH]c3c1)C(=O)N2` (mixture of isomers) [Example A83, (E and Z)-3-((1H-indazol-6-yl)methylene)-5-methoxyindolin-2-one]: the pIC50 on Aurora B and at human PLK4 was greater than 5.30 throughout. Also, the inhibition at 10 µM at PLK2, at PLK1 and on Aurora A was greater than 50% throughout.

Turning to `CC(=O)Nc1cccc2c1NC(=O)/C2=C/c1ccc2c(/C=C/c3ccncc3)n[nH]c2c1` [Example A120, N-((E)-2-oxo-3-((3-((E)-2-(pyridin-4-yl)vinyl)-1H-indazol-6-yl)-methylene)indolin-7-yl)acetamide], the pIC50 at Aurora B, at human PLK4 and on Aurora A was greater than 5.30 in each case. The inhibition at 10 µM on PLK2 and on PLK1 was less than 50% in each case.

Regarding `O=C1Nc2ccccc2C1=Cc1ccc2c(/C=C/c3cnccn3)n[nH]c2c1` (mixture of isomers) [Example A104, (E and Z)-3-((3-((E)-2-(pyrazin-2-yl)vinyl)-1H-indazol-6-yl)methylene)-indolin-2-one], the pIC50 at Aurora B, on human PLK4 and at Aurora A was greater than 5.30 in each case. The inhibition at 10 µM on PLK2 and on PLK1 was less than 50% each time.

As for `CC(=O)Nc1ccc2c(c1)/C(=C\c1ccc3cn[nH]c3c1)C(=O)N2` [Example A22, (E)-N-(3-((1H-indazol-6-yl)methylene)-2-oxoindolin-5-yl)acetamide], the pIC50 on Aurora B is 4.30 to 5.30; on human PLK4 it was greater than 5.30; at PLK1, 4.30 to 5.30. The inhibition at 10 µM on PLK2 and at Aurora A was greater than 50% each time.

Consider `O=C1Nc2ccc(C(=O)Nc3ccccc3)cc2/C1=C\c1ccc2cn[nH]c2c1` [Example A11, (E)-3-((1H-indazol-6-yl)methylene)-2-oxo-N-phenylindoline-5-carboxamide], for which the inhibition at 10 µM is greater than 50% on Aurora B (10 μM compound, read-out: Aurora B relative inhibition percentage at a dose of 10 μM); less than 50% on PLK2; greater than 50% at Aurora A. Besides, the pIC50 is greater than 5.30 at human PLK4 and less than 4.30 at PLK1.

As for `O=C1Nc2ccc(F)cc2/C1=C\c1ccc2cn[nH]c2c1` [Example A16, (E)-3-((1H-indazol-6-yl)methylene)-5-fluoroindolin-2-one], the pIC50 is greater than 5.30 at Aurora B; greater than 5.30 on human PLK4; greater than 5.30 at PLK2 (60 μM ATP, 133 nM PLK2, read-out: PLK2 IC50 Ranges); 4.30 to 5.30 on PLK1; greater than 5.30 on Aurora A.

Broadly, the pIC50 is the IC50 on a negative log10 scale, so that one unit is a factor of ten. For orientation: inhibition means the relative decrease from the control value, in per cent.
